In ChEMBL document CHEMBL5346881 (Eur J Med Chem, 2023):

How the values were obtained:
P388 = test: Antitumor activity against mouse P388 cells xenografted in CB17 SCID mouse assessed as T/C ratio at 140 uM, ip administered as single dose measured after 17 days; assay type: functional; details: time 17 day
SK-OV-3 [1] = test: Antitumor activity against human SK-OV-3 cells xenografted in CB17 SCID mouse assessed as tumor inhibition at 140 uM, ip administered as single dose measured after 17 days; assay type: functional; details: SK-OV-3, 408 h, time 17 day, read-out: TGI
MDA-MB-231 = test: Antiproliferative activity against human MDA-MB-231 cells assessed inhibition of cell growth incubated for 48 hrs by MTT assay; assay type: functional, cell-based; details: MDA-MB-231, 48 h
SK-OV-3 [2] = test: Antiproliferative activity against human SK-OV-3 cells assessed inhibition of cell growth incubated for 48 hrs by MTT assay; assay type: functional, cell-based; details: SK-OV-3, 48 h
[3] = Antiproliferative activity against human UWB1289 cells harboring BRCA1 assessed inhibition of cell growth incubated for 48 hrs by MTT assay; assay type: functional, cell-based; details: UWB1289, 48 h
LoVo = test: Antiproliferative activity against human LoVo cells assessed inhibition of cell growth incubated for 48 hrs by MTT assay; assay type: functional, cell-based
HuP-T3 = test: Antiproliferative activity against human HuP-T3 cells assessed inhibition of cell growth incubated for 48 hrs by MTT assay; assay type: functional, cell-based; details: HuP-T3, 48 h
HeLa = test: Antiproliferative activity against human HeLa cells assessed inhibition of cell growth incubated for 48 hrs by MTT assay; assay type: functional, cell-based
LS174T = test: Antiproliferative activity against human LS174T cells assessed inhibition of cell growth incubated for 48 hrs by MTT assay; assay type: functional, cell-based
[4] = Acute toxicity in ip dosed CB17 SCID mouse assessed as lethal dose; assay type: organism-based; parameters: LD20: unit not given here; details: in vivo
MDA-MB-453 = test: Antiproliferative activity against human MDA-MB-453 cells assessed inhibition of cell growth incubated for 48 hrs by MTT assay; assay type: functional, cell-based; details: MDA-MB-453, 48 h
HT-29 = test: Antiproliferative activity against human HT-29 cells assessed inhibition of cell growth incubated for 48 hrs by MTT assay; assay type: functional, cell-based; details: HT-29, 48 h
[5] = Growth inhibition of human UWB1289 cells harboring BRCA1 incubated for 48 hrs by MTT assay; assay type: functional
PC-3 [6] = test: Growth inhibition of human PC-3 cells incubated for 48 hrs by MTT assay; assay type: functional
MRC5 [7] = test: Growth inhibition of human MRC5 cells incubated for 48 hrs by MTT assay; assay type: functional
MCF7 [8] = test: Antiproliferative activity against human MCF7 cells assessed inhibition of cell growth incubated for 48 hrs by MTT assay; assay type: functional, cell-based; details: MCF7, 48 h
PC-3 [9] = test: Antiproliferative activity against human PC-3 cells assessed inhibition of cell growth incubated for 48 hrs by MTT assay; assay type: functional, cell-based; details: PC-3, 48 h
MRC5 [10] = test: Antiproliferative activity against human MRC5 cells assessed inhibition of cell growth incubated for 48 hrs by MTT assay; assay type: functional, cell-based; details: MRC5, 48 h
SK-OV-3 [11] = test: Growth inhibition of human SK-OV-3 cells incubated for 48 hrs by MTT assay; assay type: functional
MCF7 [12] = test: Growth inhibition of human MCF7 cells incubated for 48 hrs by MTT assay; assay type: functional
SK-OV-3 [13] = test: Antitumor activity against human SK-OV-3 cells xenografted in CB17 SCID mouse assessed as reduction in tumor volume at 36 mg/kg, ip administered as single dose measured after 11 days (reference value: 790 +/- 65.6 mm3); assay type: functional; details: time 11 day
PC-3 [14] = test: Antitumor activity against human PC-3 cells xenografted in CB17 SCID mouse assessed as tumor inhibition at 36 mg/kg, ip administered as single dose measured after 21 days; assay type: functional; details: PC-3, 504 h, time 21 day, read-out: TGI
PC-3 [15] = test: Antitumor activity against human PC-3 cells xenografted in CB17 SCID mouse assessed as reduction in tumor volume at 36 mg/kg, ip administered as single dose measured after 21 days (reference value: 683 +/- 47.3 mm3); assay type: functional; details: time 21 day
SK-OV-3 [16] = test: Antitumor activity against human SK-OV-3 cells xenografted in CB17 SCID mouse assessed as tumor inhibition at 36 mg/kg, ip administered as single dose measured after 11 days; assay type: functional; details: SK-OV-3, 264 h, time 11 day, read-out: TGI

Compound | T/C (P388) | IC50 (MDA-MB-231) | IC50 (SK-OV-3 [2]) | IC50 [3] | IC50 (LoVo) | IC50 (HuP-T3) | IC50 (HeLa) | GI50 [5] | TGI [5] | GI50 (PC-3 [6]) | TGI (PC-3 [6]) | GI50 (MRC5 [7]) | TGI (MRC5 [7]) | IC50 (MCF7 [8]) | IC50 (PC-3 [9]) | IC50 (MRC5 [10]) | GI50 (SK-OV-3 [11]) | TGI (SK-OV-3 [11]) | GI50 (MCF7 [12]) | TGI (MCF7 [12]) | other results
C[C@]12CC(=O)[C@H]3[C@@H](CCC4=CC(=O)NCC[C@@]43C)[C@@H]1CC[C@@H]2OC(=O)[C@@H](N)COc1ccc(N(CCCl)CCCl)cc1 | 109.9 | 4 µM | 4 µM | 4 µM | 4 µM | 4 µM | 4 µM |  |  |  |  |  |  |  |  |  |  |  |  |  | inhibition in vivo at 140 µM (SK-OV-3 [1]): 110%; IC50 (LS174T): 4 µM; LD20 ([4]; ip): 10; LD50 ([4]; ip): 14; IC50 (MDA-MB-453): 4 µM; IC50 (HT-29): 4 µM
C[C@]12CC(=O)[C@H]3[C@@H](CCC4=CC(=O)NCC[C@@]43C)[C@@H]1CC[C@@H]2OC(=O)CCOc1ccc(N(CCCl)CCCl)cc1 | 356 | 65 µM | 65 µM | 65 µM | 65 µM | 65 µM | 65 µM |  |  |  |  |  |  |  |  |  |  |  |  |  | IC50 (LS174T): 65 µM; LD20 ([4]; ip): 140; LD50 ([4]; ip): 110; IC50 (MDA-MB-453): 65 µM; IC50 (HT-29): 65 µM
CC(=O)O[C@@H](COc1ccc(N(CCCl)CCCl)cc1)C(=O)O[C@H]1CC[C@H]2[C@@H]3CCC4=CC(=O)NCC[C@]4(C)[C@H]3CC[C@]12C |  |  | 3.9 µM | 6.3 µM |  |  |  | 0.7 µM | 2.2 µM | 1.7 µM | 3.9 µM | 3.9 µM | 15.3 µM | 4.3 µM | 9 µM | 21.5 µM | 0.8 µM | 2.2 µM | 1.5 µM | 3.4 µM | 
CC(=O)O[C@@H](COc1ccc(N(CCCl)CCCl)cc1)C(=O)O |  |  | > 100 µM | > 100 µM |  |  |  | > 100 µM | > 100 µM | > 100 µM | > 100 µM | 50 µM | > 100 µM | > 100 µM | > 100 µM | > 100 µM | > 100 µM | > 100 µM | 80 µM | > 100 µM | 
CC(=O)O[C@@H](COc1ccc(N(CCCl)CCCl)cc1)C(=O)O[C@H]1CC[C@H]2[C@@H]3CCC4=CC(=O)NCC[C@]4(C)[C@H]3C(=O)C[C@]12C |  |  | 33 µM | 12 µM |  |  |  | 3 µM | 7 µM | 8.2 µM | 9 µM | 27 µM | 38 µM | 12 µM | 16 µM | 52 µM | 3.8 µM | 9 µM | 2.2 µM | 7 µM | 
C[C@]12CC(=O)[C@H]3[C@@H](CCC4=CC(=O)NCC[C@@]43C)[C@@H]1CC[C@@H]2OC(=O)[C@@H](O)COc1ccc(N(CCCl)CCCl)cc1 |  |  | 36 µM | 56 µM |  |  |  | 5 µM | 13.2 µM | 4 µM | 9 µM | 12 µM | 44 µM | 21 µM | 28 µM | 68 µM | 3.4 µM | 12 µM | 6 µM | 11 µM | 
CC(=O)O[C@@H](COc1ccc(N(CCCl)CCCl)cc1)C(=O)Oc1ccc2c(c1)CC[C@@H]1[C@@H]2CC[C@]2(C)NC(=O)CC[C@@H]12 |  |  | 22 µM | 11.9 µM |  |  |  | 3 µM | 8.8 µM | 4.5 µM | 8.9 µM | 6.5 µM | 10 µM | 10 µM | 15 µM | 19 µM | 4 µM | 9 µM | 2 µM | 5.5 µM | 
C[C@]12CC[C@H]3[C@@H](CCC4=CC(=O)NCC[C@@]43C)[C@@H]1CC[C@@H]2OC(=O)[C@@H](O)COc1ccc(N(CCCl)CCCl)cc1 |  |  | 9 µM | 51 µM |  |  |  | 1.2 µM | 4 µM | 2 µM | 4 µM | 3 µM | 10 µM | 8 µM | 11 µM | 22.5 µM | 1 µM | 3.5 µM | 1.5 µM | 3.8 µM | Activity (SK-OV-3 [13]): 192 mm3; inhibition in vivo at 36 mg/kg (PC-3 [14]): 85.2%; Activity (PC-3 [15]): 181 mm3; LD50 ([4]; CB17 SCID, read-out: LD50): 28 mg/kg; LD10 ([4]; ip): 36 mg/kg; inhibition in vivo at 36 mg/kg (SK-OV-3 [16]): 95%
C[C@]12CC[C@H]3[C@@H](CCC4=CC(=O)NCC[C@@]43C)[C@@H]1CC[C@@H]2OC(=O)[C@@H](N)COc1ccc(N(CCCl)CCCl)cc1 | 410.3 | 1 µM | 1 µM | 1 µM | 1 µM | 1 µM | 1 µM |  |  |  |  |  |  |  |  |  |  |  |  |  | IC50 (LS174T): 1 µM; LD20 ([4]; ip): 12.5; LD50 ([4]; ip): 21; IC50 (MDA-MB-453): 1 µM; IC50 (HT-29): 1 µM
